Experimental data reported in ChEMBL document CHEMBL1201862, “PubChem BioAssay data set” (2004).
Calls of active or inactive are those of the source.

Tests used:
[1] = target: Alkaline phosphatase, tissue-nonspecific isozyme (Homo sapiens, UniProt P05186); assay: potency against alkaline phosphatase TNAP – biochemical, luminescent, dose response, SAR follow-up (AID 1056)
[2] = target: Alkaline phosphatase, placental type (Homo sapiens, UniProt P05187); assay: human placental alkaline phosphatase inhibition – biochemical, luminescence, confirmation (AID 1512); type: functional
T-cell = assay: loss of vesicle association with mouse CD8+ T cells – mouse 2C CD8+ T cells, flow cytometry, dose response (AID 485284); type: functional
[3] = target: T1, Apoptotic protease-activating factor 1 (Homo sapiens, UniProt O14727); type: functional
T1 sequence (O14727 whole entry): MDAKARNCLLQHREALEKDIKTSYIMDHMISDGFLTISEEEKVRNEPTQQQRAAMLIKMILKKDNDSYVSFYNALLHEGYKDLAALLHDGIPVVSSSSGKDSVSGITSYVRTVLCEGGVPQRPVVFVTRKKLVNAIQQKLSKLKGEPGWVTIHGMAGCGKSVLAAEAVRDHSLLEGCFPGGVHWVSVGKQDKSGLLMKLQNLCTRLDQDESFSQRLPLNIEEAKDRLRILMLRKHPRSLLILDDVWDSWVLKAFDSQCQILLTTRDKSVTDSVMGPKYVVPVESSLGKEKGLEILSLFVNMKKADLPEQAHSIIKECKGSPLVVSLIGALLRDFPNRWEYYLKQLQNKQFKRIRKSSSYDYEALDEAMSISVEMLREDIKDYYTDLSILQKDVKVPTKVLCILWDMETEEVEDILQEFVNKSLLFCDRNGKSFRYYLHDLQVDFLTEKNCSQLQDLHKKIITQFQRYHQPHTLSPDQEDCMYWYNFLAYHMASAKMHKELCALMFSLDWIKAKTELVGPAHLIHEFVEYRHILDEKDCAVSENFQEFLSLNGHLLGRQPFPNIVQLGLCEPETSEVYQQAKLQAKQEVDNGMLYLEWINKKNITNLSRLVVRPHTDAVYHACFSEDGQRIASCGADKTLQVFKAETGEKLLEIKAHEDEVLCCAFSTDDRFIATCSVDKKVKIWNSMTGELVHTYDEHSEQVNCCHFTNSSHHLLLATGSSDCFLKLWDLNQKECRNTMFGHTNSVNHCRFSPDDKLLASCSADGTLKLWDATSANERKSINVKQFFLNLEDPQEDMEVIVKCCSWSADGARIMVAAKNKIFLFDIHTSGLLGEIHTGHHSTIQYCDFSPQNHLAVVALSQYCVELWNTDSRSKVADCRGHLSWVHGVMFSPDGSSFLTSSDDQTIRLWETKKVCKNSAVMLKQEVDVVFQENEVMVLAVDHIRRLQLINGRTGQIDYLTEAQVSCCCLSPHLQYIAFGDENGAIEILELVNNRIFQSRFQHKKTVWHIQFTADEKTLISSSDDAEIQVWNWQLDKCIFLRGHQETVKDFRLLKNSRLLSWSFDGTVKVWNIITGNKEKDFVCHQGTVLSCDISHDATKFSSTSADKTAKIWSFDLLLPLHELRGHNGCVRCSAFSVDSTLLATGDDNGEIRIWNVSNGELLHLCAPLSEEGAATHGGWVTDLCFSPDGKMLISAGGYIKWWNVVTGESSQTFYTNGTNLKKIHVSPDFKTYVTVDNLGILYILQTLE

[4] = Intein inhibitors as potential Tuberculosis drugs, a cytotoxicity screen. [Related pubchem assays (depositor defined):AID2221, AID2223, AID434968, AID435010, AID449749, AID449750, AID489010]; type: functional
INS1 = assay: INS-1E survival protection against cytokine death – cell-based, luminescence, retest, dose response (AID 449756); type: functional; conditions: Rattus norvegicus;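 further: cell death triggered by IL-1 beta plus TNF-alpha plus IFN-gamma mixture; protective hits raise ATP signal compared with cytokine alone wells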
[5] = target: T2, Replicative DNA helicase DnaB (Mycobacterium tuberculosis, UniProt P9WMR3); assay: DnaB intein splicing inhibitors, dose response, biochemical, cell-free fluorescence (AID 449749); type: functional
T2 sequence (P9WMR3 whole entry): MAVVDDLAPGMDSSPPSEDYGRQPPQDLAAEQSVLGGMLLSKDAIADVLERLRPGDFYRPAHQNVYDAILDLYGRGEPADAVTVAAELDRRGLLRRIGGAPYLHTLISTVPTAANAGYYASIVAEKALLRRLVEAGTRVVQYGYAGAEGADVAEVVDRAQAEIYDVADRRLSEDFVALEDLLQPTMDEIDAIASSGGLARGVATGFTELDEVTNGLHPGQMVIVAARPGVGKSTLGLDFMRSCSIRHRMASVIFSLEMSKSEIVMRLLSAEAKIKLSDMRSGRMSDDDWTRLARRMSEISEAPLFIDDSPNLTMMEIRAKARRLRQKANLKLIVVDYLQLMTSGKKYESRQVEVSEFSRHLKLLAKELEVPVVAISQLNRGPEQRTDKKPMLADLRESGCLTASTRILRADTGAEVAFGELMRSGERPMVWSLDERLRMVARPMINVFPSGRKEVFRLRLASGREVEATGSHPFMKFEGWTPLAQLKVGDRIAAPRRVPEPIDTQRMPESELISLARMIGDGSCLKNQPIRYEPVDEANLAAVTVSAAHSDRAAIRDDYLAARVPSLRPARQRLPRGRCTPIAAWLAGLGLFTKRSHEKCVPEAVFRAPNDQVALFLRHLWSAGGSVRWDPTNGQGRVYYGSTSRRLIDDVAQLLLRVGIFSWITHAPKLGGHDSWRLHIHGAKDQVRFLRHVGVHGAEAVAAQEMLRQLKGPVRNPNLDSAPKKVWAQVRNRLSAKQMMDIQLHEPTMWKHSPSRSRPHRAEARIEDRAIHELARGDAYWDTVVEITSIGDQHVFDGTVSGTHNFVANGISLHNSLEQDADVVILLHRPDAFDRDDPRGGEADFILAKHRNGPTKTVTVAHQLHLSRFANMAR

BJ [6] = assay: BJ-TERT-LT-ST fibroblast viability loss – cell-based, RAS-independent, luminescence, dose response (AID 1935); type: functional; conditions: Homo sapiens;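 further: BJ fibroblasts immortalized with TERT plus LT and ST oncogenes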
Protein RecA = target: T3, Protein RecA (Mycobacterium tuberculosis, UniProt P9WHJ3); assay: Fluorescence Cell-Free Homogeneous Dose Retest to Identify Inhibitors of RecA-Intein Splicing Activity. [Related pubchem assays (depositor defined):AID2097, AID2223, AID489010, AID492950]; type: functional
T3 sequence (P9WHJ3 whole entry): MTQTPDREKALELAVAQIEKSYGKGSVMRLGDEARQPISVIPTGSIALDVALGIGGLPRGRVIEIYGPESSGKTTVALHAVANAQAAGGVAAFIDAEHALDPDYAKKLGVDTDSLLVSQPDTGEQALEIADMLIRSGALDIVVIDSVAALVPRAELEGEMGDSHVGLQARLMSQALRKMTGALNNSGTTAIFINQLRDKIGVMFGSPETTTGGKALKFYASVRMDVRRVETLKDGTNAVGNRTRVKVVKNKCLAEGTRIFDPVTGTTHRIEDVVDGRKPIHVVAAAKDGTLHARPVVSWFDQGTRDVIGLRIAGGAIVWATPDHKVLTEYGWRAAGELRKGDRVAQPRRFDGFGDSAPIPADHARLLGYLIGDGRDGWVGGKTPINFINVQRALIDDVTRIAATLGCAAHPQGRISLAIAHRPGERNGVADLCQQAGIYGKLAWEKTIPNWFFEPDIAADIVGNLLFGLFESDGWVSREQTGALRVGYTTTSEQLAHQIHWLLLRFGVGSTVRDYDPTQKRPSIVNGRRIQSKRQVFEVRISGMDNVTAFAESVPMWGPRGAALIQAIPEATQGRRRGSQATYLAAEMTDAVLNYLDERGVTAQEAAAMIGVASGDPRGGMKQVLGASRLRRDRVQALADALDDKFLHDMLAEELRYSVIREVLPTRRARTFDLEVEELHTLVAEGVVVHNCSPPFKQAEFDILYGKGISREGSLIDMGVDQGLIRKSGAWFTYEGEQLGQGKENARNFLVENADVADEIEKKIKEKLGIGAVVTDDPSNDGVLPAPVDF

[7] = Luminescence Cell-Based Dose Response HTS to Identify Inhibitors of 5'UTR Stem-Loop Driven Prion Protein mRNA Translation in H4 Neuroglioblastoma Cells. [Related pubchem assays: 1827 (Project Summary), 1813 (Primary HTS)]; type: functional
[8] = luciferase reporter signal suppression in cells – H4 neuroglioma cells, luminescence, dose response (AID 1990); type: functional, cell-based
BJ [9] = assay: BJ-TERT fibroblast viability loss – cell-based, RAS-independent, luminescence, dose response (AID 1933); type: functional; conditions: Homo sapiens
[10] = DRD fibroblast viability loss – cell-based, non-viral oncogenic, luminescence, dose response (AID 1934); type: functional; conditions: Homo sapiens
[11] = target: Mitochondrial peptide methionine sulfoxide reductase (Bos taurus, UniProt P54149); type: functional;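 further: absorbance read-out, biochemical high-throughput dose-response screen for MsrA inhibitors, confirmatory; recombinant bovine MsrA coupled to E. coli TrxB with NADPH and selenocystamine; potency is for inhibitors of MsrA activity on DMSO substrate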
BJ [12] = assay: cells; type: functional, cell-based; conditions: Homo sapiens
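Wherever CC50 is given: cells exposed to compound for 72 hours before luminescence readout.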

O=C(CNc1ccncc1)c1ccc(O)c(O)c1
IC50 [1]: > 100 µM (inactive)
IC50 [2]: > 100 µM (inactive)

CCOc1ccccc1NC(=O)c1ccc(F)c(S(=O)(=O)N2CCC3(CC2)OCCO3)c1
EC50 (T-cell): 16.4 µM (active)

Cc1oc2c(c1C(=O)N1CCOCC1)C(=O)c1ccccc1C2=O
IC50 [3]: 13.9 µM (active)
CC50 [4]: 6.26 µM (active)
AC50 (INS1): 2.45 µM (active)
AC50 [5]: 1.41 µM (active)
EC50 (BJ [6]): > 75 µM (inconclusive)
EC50 (Protein RecA): 506 nM (active)
EC50 [7]: 8.93 µM (active)
EC50 [8]: 8.24 µM (active)
EC50 (BJ [9]): 11.8 µM (active)
EC50 [10]: 10.5 µM (active)
IC50 [11]: 64.3 µM (inactive)
EC50 (BJ [12]): 13.4 µM (active)
